Experimental data reported in patent US5196513A, “Synthetic peptides derived from the beta-subunit of human thyroid stimulating hormone” (Mayo Foundation for Medical Education and Research, priority 1991, dated 1993).
Residues, ends and D or L forms follow the SMILES beside them.

Legend:
FRTL5 cells [1] = target: T1, FRTL5 cells (Rattus norvegicus, UniProt P21463); experiment: TSH bioassay, inhibition of TSH-mediated cAMP generation in FRTL5 cells; assay type: cell-based
Description: (§1) FRTL5 cells were cultured in Hams F-12 medium supplemented with 5% calf serum and a preparation containing 6 hormones (6H), including 10 mU/ml bTSH (Sigma, St. Louis, Mo.), as previously described. Ambesi-Impiombato et al., Proc. Natl. Acad. Sci. U.S.A., 77:3455 (1980), the disclosure of which is incorporated by reference herein. The cells were enzymatically removed from flasks and plated in 24 well plates containing 6H at a density of 150,000 cells per well. After 4 days, the cells were washed and the media replaced with media containing insulin only (1H). All subsequent assays were performed on cells deprived of TSH for 5-7 days.
The TSH bioassay was a modification of assays previously described by Bidey et al., J. Endocrinol., 101:269 (1984); and Kasagi et al., ACTA Endocrinol., 115:30 (1987). FRTL5 cells were washed with NaCl-free Hanks balanced salt solution (NaCl-free HBSS) pH 7.3. The cells were then exposed to purified bovine TSH (bTSH) (a gift from Dr. John Pierce, formerly of UCLA) in the presence and absence of specific β-subunit peptides in NaCl-free HBSS with 0.5 mM isobutylmethylxanthine (IBMX, Sigma, St. Louis, Mo.) and 0.5% BSA (Sigma). The total volume in each well was 275 μl. In stimulation assays, only the β-subunit peptides were added. For inhibition assays, two different concentrations of the β-subunit peptides were added to culture wells in duplicate with 200 mU/I of purified bTSH. The plates were incubated for 2 hours at 37° C. in 5% CO2. The media was removed from the cells and a portion diluted 1:50 in 0.05M NaOAc buffer, pH 6.2. A 25 μl aliquot of this was used in a cAMP RIA. Basal cAMP levels were determined in the absence of the TSH or β-subunit peptides. In inhibition assays, the percent inhibition was calculated as noted below (see Morris et al., (1988) supra): [formula]

FRTL5 cells [2] = target: T1, FRTL5 cells; experiment: TSab bioassay, inhibition of TSab-stimulated cAMP generation in FRTL5 cells; assay type: cell-based; conditions: for Serum samples in which TSab-stimulated cAMP was significantly inhibited (p<0.05) / samples tested: peptide 150 μg/ml; for Inhibition of TSab-stimulated cAMP generation (in words): peptide 50 and 150 μg/ml
Description: as §1
Serum samples from 15 patients with elevated TSab levels were selected from the clinical chemistry laboratory. The TSab values, expressed as an index, [formula] 63:707 (1988)]ranged from 10-20 with an average of 13.8±3.3. Normal serum has an index of less than 1.3.
The bioassay described by Kasagi et al., supra, with modifications as previously noted above, was used. The immunoglobulins were precipitated from 2 ml of TSab-containing serum with 6 ml of polyethylene glycol 6,000 (Baker; Phillipsburg, N.J.), centrifuged at 3,000×g for 20 minutes, and resuspended in 4 ml of NaCl-free HBSS with 0.5 mM IBMX and 0.5% BSA. The plated cells were washed with NaCl-free HBSS and the crude immunoglobulin extract, mixed with various concentrations of β-subunit peptides, was added in duplicate to the wells (total volume 200 μl/well). The cells were incubated for 2 hours at 37° C. and 5% CO2. The samples were then removed from the cells and a portion diluted 1:50 in NaOAc buffer, pH 6.2. A 25 μl aliquot of this was then used in a cAMP RIA as described above. The basal cAMP levels were determined for each plate of cells in the absence of immunoglobulin extract and β-peptides. A maximal cAMP level was attained by stimulating the cells with the immunoglobulin extract only. The percent increase in cAMP levels above basal was calculated as: [formula] as previously described (see Morris et al., supra). The percent inhibition of cAMP production by the β-subunit peptides was calculated as described above for TSH-stimulated cells, substituting pmol cAMP crude immunoglobulin for pmol cAMP TSH.
Inhibition of TSab activity was tested by comparing the replicates of cAMP levels generated in the presence of peptide to those generated by TSab alone using Student's T test for unpaired samples. Mean inhibition by the various doses of synthetic peptide for the patient group was tested by comparison with maximum cAMP response within each patient sample using the T test for paired samples.

[3] = target: T2, TSH receptor on human thyroid membranes (Homo sapiens, UniProt P16473); experiment: Human thyroid membrane TSH radio-receptor assay (inhibition of 125I-bTSH binding); conditions: for EC50: concentration inhibiting 125I-bTSH binding to human thyroid membrane by 50%, mean ± se of at least 3 assays; for Inhibition of TSH binding to human thyroid membrane (in words): human thyroid membrane RRA
T2 construct: Crude membrane preparations were prepared from the frozen tissue; from tissue; host or cells: human thyroid tissue (Graves' disease patients), crude 2000 x g membrane fraction
T2 sequence (P16473 21-764): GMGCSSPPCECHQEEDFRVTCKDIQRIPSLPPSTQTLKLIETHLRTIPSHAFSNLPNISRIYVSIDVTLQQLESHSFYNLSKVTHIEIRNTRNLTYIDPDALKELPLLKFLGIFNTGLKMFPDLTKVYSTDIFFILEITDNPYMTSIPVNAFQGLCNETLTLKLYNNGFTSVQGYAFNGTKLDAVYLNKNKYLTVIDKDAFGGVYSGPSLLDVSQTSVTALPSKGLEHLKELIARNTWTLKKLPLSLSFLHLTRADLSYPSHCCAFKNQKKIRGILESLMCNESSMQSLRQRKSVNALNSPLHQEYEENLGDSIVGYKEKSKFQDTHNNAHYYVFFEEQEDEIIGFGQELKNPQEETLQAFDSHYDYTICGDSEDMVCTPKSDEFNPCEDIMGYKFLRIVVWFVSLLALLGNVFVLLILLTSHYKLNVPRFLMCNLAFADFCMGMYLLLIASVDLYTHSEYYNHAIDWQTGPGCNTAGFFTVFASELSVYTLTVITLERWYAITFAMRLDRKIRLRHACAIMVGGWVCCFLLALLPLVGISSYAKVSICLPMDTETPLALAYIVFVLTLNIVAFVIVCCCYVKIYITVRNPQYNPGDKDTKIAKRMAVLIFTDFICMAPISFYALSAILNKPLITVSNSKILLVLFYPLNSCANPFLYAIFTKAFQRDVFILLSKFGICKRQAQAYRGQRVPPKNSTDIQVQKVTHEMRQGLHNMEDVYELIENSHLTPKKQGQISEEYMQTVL
Description: Thyroid tissue from patients with Graves' disease was obtained at surgery and promptly frozen and maintained at -70° C. Crude membrane preparations were prepared from the frozen tissue as previously described, Takahashi et al., J. Clin. Endocrinol. Metab., 47:870-876 (1978), the disclosure of which is incorporated by reference herein. Briefly, the tissue was homogenized with a Polytron homogenizer (Brinkmann Instruments,Westbury, N.Y.), and the 2000×g fraction was collected by centrifugation, washed, and resuspended in 40 mM Tris, 200 mM sucrose, pH 7.4. Membrane preparations were maintained at -70° C. until assay.
(§2) Highly purified bTSH (30 U/mg, supplied by Dr. J. G. Pierce, formerly of UCLA) was radio-iodinated (Na^125 I, Amersham, Chicago) by a lactoperoxidase technique to a specific activity averaging 40-50 μCi/μg as previously described, Takahashi et al., supra, then purified by Sephadex G-100 chromatography.
(§3) The TSH radio-receptor assay (RRA) utilized for the studies has been well described previously; see Takahashi et al., supra and Morris et al., Endocrinology, 123:456-462 (1988), the disclosure of which is incorporated by reference herein. Briefly, for either human or porcine thyroid RRA, the incubation mixture consisted of the following: 10 mg equivalents of wet weight (mg eq) crude thyroid membrane preparation, 0.124 ng [^125 I]iodo-bTSH (approximately 20,000 cpm), 0.2% Triton X-100, and the noted amounts of synthetic peptides or unlabeled bTSH in 0.5 ml 40 mM Tris, 0.1% BSA, pH 7.4. Bound label was separated from free after 2 hrs incubation at 25° C. by addition of a 1 ml 30% polyethylene glycol (PEG, Baker, Phillipsburg, N.J.) 6000 in 1M NaCl and centrifugation. The resulting pellet was counted in a gamma counter. Non-specific binding was determined by addition of a 100 mU/ml crude bTSH (Sigma, St. Louis).

[4] = target: T3, porcine TSH receptor (porcine thyroid membranes) (Sus scrofa, UniProt Q8SPP9); experiment: Porcine thyroid membrane TSH radio-receptor assay (inhibition of 125I-bTSH binding); conditions: concentration inhibiting 125I-bTSH binding to porcine thyroid membrane by 50%; mean ± se of at least 3 assays
T3 construct: Frozen porcine thyroid glands were purchased; tissue Pel-Freez Biologicals; host or cells: porcine thyroid glands, crude membrane preparation
T3 sequence (Q8SPP9 22-764): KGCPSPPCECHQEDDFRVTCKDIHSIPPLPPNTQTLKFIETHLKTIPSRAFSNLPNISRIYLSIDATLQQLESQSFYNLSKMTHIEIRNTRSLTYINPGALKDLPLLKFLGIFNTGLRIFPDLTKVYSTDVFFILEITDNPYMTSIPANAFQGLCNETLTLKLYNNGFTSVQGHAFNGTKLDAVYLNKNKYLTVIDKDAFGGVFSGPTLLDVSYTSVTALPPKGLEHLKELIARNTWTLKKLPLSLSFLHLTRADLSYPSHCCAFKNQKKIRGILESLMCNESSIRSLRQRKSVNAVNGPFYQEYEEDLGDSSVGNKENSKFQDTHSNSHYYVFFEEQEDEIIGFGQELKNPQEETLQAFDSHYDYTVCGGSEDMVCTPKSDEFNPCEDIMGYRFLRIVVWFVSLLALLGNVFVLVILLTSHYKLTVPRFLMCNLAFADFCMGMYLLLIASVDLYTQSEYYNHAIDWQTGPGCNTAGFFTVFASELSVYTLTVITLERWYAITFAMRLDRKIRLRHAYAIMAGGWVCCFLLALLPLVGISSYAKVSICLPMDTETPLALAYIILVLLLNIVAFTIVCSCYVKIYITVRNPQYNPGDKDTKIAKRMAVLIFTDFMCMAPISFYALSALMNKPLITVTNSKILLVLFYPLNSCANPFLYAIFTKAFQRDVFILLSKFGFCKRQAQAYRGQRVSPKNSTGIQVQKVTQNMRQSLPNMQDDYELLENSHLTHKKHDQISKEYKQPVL
From the text: (§4) Frozen porcine thyroid glands were purchased (Pel-Freez Biologicals, Rogers, Ak.) and prepared using the same procedures as for the human glands.
as §2, §3

[5] = target: T4, EGF thyroid membrane receptor (Sus scrofa, UniProt A0A5G2R2I8); experiment: Porcine thyroid membrane epidermal growth factor radio-receptor assay; assay type: binding; conditions: [125I]iodo-EGF, read-out: EC50 of unlabeled EGF in EGF RRA
T4 construct: The incubation mixture consisted of 40 mg eq crude thyroid membrane; tissue Pel-Freez Biologicals; host or cells: porcine thyroid glands, crude membrane preparation
T4 sequence (A0A5G2R2I8 22-1210): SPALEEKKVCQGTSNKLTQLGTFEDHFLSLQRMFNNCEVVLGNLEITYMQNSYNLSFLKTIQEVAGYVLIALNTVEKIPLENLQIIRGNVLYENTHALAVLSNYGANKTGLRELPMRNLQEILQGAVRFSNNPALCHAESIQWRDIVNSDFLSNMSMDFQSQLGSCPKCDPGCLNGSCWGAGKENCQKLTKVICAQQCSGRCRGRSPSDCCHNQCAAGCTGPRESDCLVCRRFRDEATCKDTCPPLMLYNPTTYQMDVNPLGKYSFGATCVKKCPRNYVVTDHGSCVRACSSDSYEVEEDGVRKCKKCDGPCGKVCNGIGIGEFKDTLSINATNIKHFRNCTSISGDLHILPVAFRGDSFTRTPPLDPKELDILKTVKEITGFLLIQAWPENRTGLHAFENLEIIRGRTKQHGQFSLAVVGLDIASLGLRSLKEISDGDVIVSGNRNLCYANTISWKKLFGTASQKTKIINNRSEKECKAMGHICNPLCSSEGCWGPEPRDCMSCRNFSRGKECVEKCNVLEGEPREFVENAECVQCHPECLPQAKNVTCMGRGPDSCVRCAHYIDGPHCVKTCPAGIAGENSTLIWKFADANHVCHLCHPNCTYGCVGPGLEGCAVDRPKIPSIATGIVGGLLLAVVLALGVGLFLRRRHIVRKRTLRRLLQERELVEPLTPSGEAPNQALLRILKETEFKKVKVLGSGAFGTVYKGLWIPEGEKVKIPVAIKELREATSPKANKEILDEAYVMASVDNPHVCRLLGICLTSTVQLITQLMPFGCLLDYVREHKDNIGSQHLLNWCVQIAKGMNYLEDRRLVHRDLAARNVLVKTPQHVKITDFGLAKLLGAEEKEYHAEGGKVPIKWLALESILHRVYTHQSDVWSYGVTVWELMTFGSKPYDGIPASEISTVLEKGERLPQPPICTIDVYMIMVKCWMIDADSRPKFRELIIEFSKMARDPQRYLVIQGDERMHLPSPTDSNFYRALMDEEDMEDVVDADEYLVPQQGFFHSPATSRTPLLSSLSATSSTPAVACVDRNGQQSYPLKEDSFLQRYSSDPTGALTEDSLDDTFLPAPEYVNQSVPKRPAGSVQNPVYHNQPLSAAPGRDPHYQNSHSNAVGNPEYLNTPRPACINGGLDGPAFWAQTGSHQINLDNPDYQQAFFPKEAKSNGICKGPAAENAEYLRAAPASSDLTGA
Description: as §4
The EGF RRA was a modification of that described by Humphries et al., J. Endocrinol., 102:857-61 (1984), the disclosure of which is incorporated by reference herein. Purified murine EGF (a gift of Dr. N. S. Jiang, Mayo Clinic) was radio-iodinated by a chloramine-T technique to a specific activity of 65 μCi/μg. The incubation mixture consisted of 40 mg eq crude thyroid membrane, 0.5 ng [^125 I]iodo-EGF, and the indicated concentrations of unlabeled EGF or synthetic peptides in 0.5 ml phosphate buffered saline plus 5 mM MgCl2, 1 mM CaCl2, 0.1% BSA, pH 7.4. Non-specific binding was determined by addition of 0.5 μg unlabeled EGF. Bound was separated from free by precipitation with PEG and centrifugation as above.

T1 sequence (P21463 22-764): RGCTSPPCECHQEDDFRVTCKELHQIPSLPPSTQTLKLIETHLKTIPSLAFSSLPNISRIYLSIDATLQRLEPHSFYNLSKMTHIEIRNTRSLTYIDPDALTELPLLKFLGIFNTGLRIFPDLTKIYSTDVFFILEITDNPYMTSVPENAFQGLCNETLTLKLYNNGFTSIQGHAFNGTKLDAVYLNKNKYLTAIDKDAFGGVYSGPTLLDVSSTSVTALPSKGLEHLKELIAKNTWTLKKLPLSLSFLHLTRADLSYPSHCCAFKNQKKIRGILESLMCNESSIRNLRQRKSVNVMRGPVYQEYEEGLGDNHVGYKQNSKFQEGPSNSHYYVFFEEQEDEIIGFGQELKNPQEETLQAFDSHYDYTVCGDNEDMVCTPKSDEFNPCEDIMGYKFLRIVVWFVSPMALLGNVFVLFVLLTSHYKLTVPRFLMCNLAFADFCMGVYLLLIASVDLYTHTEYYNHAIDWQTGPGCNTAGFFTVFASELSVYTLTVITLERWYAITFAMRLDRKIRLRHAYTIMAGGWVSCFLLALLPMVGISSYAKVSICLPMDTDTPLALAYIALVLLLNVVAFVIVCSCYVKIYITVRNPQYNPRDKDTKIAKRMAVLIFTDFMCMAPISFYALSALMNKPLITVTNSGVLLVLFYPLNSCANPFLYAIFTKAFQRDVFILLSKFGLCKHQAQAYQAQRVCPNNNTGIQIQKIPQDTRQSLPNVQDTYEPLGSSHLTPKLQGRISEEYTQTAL

CC[C@H](C)[C@H](NC(=O)[C@H](Cc1c[nH]cn1)NC(=O)[C@H](CCSC)NC(=O)[C@@H](NC(=O)[C@H](Cc1ccc(O)cc1)NC(=O)[C@H](CCC(=O)O)NC(=O)[C@@H](NC(=O)[C@@H]1CCCN1C(=O)[C@@H](NC(=O)[C@H](CS)NC(=O)[C@@H](N)Cc1ccccc1)[C@@H](C)CC)[C@@H](C)O)[C@@H](C)O)C(=O)N[C@@H](CCC(=O)O)C(=O)N[C@@H](CCCNC(=N)N)C(=O)N[C@@H](CCCNC(=N)N)C(=O)N[C@@H](CCC(=O)O)C(N)=O [β1-15, Phe-Cys-Ile-Pro-Thr-Glu-Tyr-Thr-Met-His-Ile-Glu-Arg-Arg-Glu] (H-FCIPTEYTMHIERRE-NH2; N-terminus assumed)
Inhibition of TSH-mediated cAMP generation (in words) (FRTL5 cells [1]): effectively inhibit TSH-mediated cAMP generation
Serum samples in which TSab-stimulated cAMP was significantly inhibited (p<0.05) / samples tested (FRTL5 cells [2]): 12/12
Inhibition of TSab-stimulated cAMP generation (in words) (FRTL5 cells [2]): significantly inhibited cAMP production
Inhibition of TSab-stimulated cAMP generation (in words) (FRTL5 cells [2]; listed as (I)): inhibitory effect
EC50 [3]: 331 ± 45 µM
EC50 [4]: 1160 ± 431 µM

CC(C)C[C@H](N)C(=O)N[C@@H](CO)C(=O)N[C@@H](CS)C(=O)N[C@@H](CCCCN)C(=O)N[C@@H](CS)C(=O)NCC(=O)N[C@@H](CCCCN)C(=O)N[C@@H](CS)C(=O)N[C@@H](CC(N)=O)C(=O)N[C@H](C(=O)N[C@@H](CC(=O)O)C(=O)N[C@@H](Cc1ccc(O)cc1)C(=O)N[C@@H](CO)C(=O)N[C@@H](CC(=O)O)C(=O)N[C@@H](CS)C(N)=O)[C@@H](C)O [β81-95, Leu-Ser-Cys-Lys-Cys-Gly-Lys-Cys-Asn-Thr-Asp-Tyr-Ser-Asp-Cys] (H-LSCKCGKCNTDYSDC-NH2; N-terminus assumed)
Inhibition of TSH-mediated cAMP generation (in words) (FRTL5 cells [1]): effectively inhibit TSH-mediated cAMP generation
Serum samples in which TSab-stimulated cAMP was significantly inhibited (p<0.05) / samples tested (FRTL5 cells [2]): 10/11
Inhibition of TSab-stimulated cAMP generation (in words) (FRTL5 cells [2]): significantly inhibited cAMP production
Inhibition of TSab-stimulated cAMP generation (in words) (FRTL5 cells [2]; listed as (II)): inhibitory effect
Inhibition of TSH binding to human thyroid membrane (in words) [3]: inhibit binding of TSH to human thyroid membrane

C[C@@H](O)[C@H](NC(=O)[C@H](CS)NC(=O)[C@H](Cc1ccc(O)cc1)NC(=O)[C@H](CC(N)=O)NC(=O)[C@@H](NC(=O)[C@@H](N)CCCCN)[C@@H](C)O)C(=O)N[C@@H](CCCCN)C(=O)N1CCC[C@H]1C(=O)N[C@@H](CCC(N)=O)C(=O)N[C@@H](CCCCN)C(=O)N[C@@H](CO)C(=O)N[C@@H](Cc1ccc(O)cc1)C(=O)O [β101-112, Lys-Thr-Asn-Tyr-Cys-Thr-Lys-Pro-Gln-Lys-Ser-Tyr] (H-KTNYCTKPQKSY-OH)
Inhibition of TSH-mediated cAMP generation (in words) (FRTL5 cells [1]): effectively inhibit TSH-mediated cAMP generation
Serum samples in which TSab-stimulated cAMP was significantly inhibited (p<0.05) / samples tested (FRTL5 cells [2]): 10/11
Inhibition of TSab-stimulated cAMP generation (in words) (FRTL5 cells [2]): significantly inhibited cAMP production
Inhibition of TSab-stimulated cAMP generation (in words) (FRTL5 cells [2]; listed as (III)): inhibitory effect
EC50 [3]: 80 ± 9 µM
Inhibition of TSH binding to human thyroid membrane (in words) [3]: inhibit binding of TSH to human thyroid membrane
EC50 [4]: 106 ± 8.7 µM

EGF: purified murine epidermal growth factor, unlabeled
EC50 [5]: 0.000252 µM
